# In US20230373930A1, “AMINOIMIDAZOLE FPR2 AGONISTS” (BRISTOL-MYERS SQUIBB COMPANY, priority 2020, published 2023):
# Assays:
# [1] = biological target: T1, human FPR1 (Homo sapiens, UniProt P21462); experiment: FPR1 cyclic adenosine monophosphate (cAMP) assay; assay type: cell-based; settings: CHO cells overexpressing human FPR1; forskolin 10 μM; inhibition of cAMP production; HTRF; read-out: hFPR1 cAMP2 EC50
# T1 sequence (P21462 1-350): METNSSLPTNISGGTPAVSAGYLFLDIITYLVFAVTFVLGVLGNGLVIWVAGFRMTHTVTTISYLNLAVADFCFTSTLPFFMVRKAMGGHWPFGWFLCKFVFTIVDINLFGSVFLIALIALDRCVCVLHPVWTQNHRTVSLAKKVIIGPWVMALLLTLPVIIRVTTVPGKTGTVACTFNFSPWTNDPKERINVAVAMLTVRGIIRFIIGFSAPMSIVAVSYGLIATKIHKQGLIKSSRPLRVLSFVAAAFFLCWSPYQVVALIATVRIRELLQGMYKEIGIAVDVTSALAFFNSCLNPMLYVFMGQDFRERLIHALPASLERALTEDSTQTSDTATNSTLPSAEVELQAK
# Method: (§1) FPR2 and FPR1 Cyclic Adenosine Monophosphate (cAMP) Assays. A mixture of forskolin (5 μM final for FPR2 or 10 μM final for FPR1) and IBMX (200 μM final) were added to 384-well Proxiplates (Perkin-Elmer) pre-dotted with test compounds in DMSO (1% final) at final concentrations in the range of 0.020 nM to 100 μM. Chinese Hamster Ovary cells (CHO) overexpressing human FPR1 or human FPR2 receptors were cultured in F-12 (Ham's) medium supplemented with 10% qualified FBS, 250 μg/ml zeocin and 300 μg/ml hygromycin (Life Technologies). Reactions were initiated by adding 2,000 human FPR2 cells per well or 4,000 human FPR1 cells per well in Dulbecco's PBS (with calcium and magnesium) (Life Technologies) supplemented with 0.1% BSA (Perkin-Elmer). The reaction mixtures were incubated for 30 min at room temperature. The level of intracellular cAMP was determined using the HTRF HiRange cAMP assay reagent kit (Cisbio) according to manufacturer's instruction. Solutions of cryptate conjugated anti-cAMP and d2 flurorophore-labelled cAMP were made in a supplied lysis buffer separately. Upon completion of the reaction, the cells were lysed with equal volume of the d2-cAMP solution and anti-cAMP solution. After a 1-h room temperature incubation, time-resolved fluorescence intensity was measured using the Envision (Perkin-Elmer) at 400 nm excitation and dual emission at 590 nm and 665 nm. A calibration curve was constructed with an external cAMP standard at concentrations ranging from 1 μM to 0.1 μM by plotting the fluorescent intensity ratio from 665 nm emission to the intensity from the 590 nm emission against cAMP concentrations. The potency and activity of a compound to inhibit cAMP production was then determined by fitting to a 4-parametric logistic equation from a plot of cAMP level versus compound concentrations.
# [2] = biological target: T2, human FPR2 (Homo sapiens, UniProt P25090); experiment: FPR2 cyclic adenosine monophosphate (cAMP) assay; assay type: cell-based; settings: CHO cells overexpressing human FPR2; forskolin 5 μM; inhibition of cAMP production; HTRF; read-out: hFPR2 cAMP2 EC50
# T2 sequence (P25090 1-351): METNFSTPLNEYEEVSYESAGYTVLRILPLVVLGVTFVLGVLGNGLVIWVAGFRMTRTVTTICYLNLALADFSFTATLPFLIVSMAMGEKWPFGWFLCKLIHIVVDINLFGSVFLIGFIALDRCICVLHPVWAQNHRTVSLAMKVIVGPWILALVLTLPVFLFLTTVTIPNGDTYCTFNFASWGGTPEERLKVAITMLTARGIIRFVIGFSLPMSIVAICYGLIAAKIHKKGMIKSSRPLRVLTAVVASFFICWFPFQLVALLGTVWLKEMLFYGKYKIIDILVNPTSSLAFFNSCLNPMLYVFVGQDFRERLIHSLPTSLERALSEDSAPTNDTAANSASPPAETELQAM
# Method: as §1
EC50 [1],EC50 [2],SMILES
47 nM,6 nM,"COc1ccc(-n2cc(-c3ccccc3F)nc2NC(=O)c2ccc(OC(F)F)cc2)cc1 [Example 25, 4-(Difluoromethoxy)-N-[4-(2-fluorophenyl)-1-(4-methoxyphenyl)-1H-imidazol-2-yl]benzamide]"
400 nM,72 nM,"COc1ccc(-n2cc(-c3cc4cc(Cl)ccc4o3)nc2NC(=O)c2ccc(OC(F)F)cc2)cc1 [Example 26, N-[4-(5-Chloro-1-benzofuran-2-yl)-1-(4-methoxyphenyl)-1H-imidazol-2-yl]-4-(difluoromethoxy)benzamide]"
660 nM,55 nM,"COc1ccc(-n2cc(C3CCCCC3)nc2NC(=O)c2ccc(OC(F)F)cc2)cc1 [Example 27, N-[4-Cyclohexyl-1-(4-methoxyphenyl)-1H-imidazol-2-yl]-4-(difluoromethoxy)benzamide]"
1030 nM,700 nM,"COc1ccc(-n2cc(-c3ccccn3)nc2NC(=O)c2ccc(OC(F)F)cc2)cc1 [Example 28, 4-(Difluoromethoxy)-N-[1-(4-methoxyphenyl)-4-(pyridin-2-yl)-1H-imidazol-2-yl]benzamide]"
32 nM,15 nM,"CCOC(=O)c1cc(-c2cn(-c3ccc(OC)cc3)c(NC(=O)c3ccc(OC(F)F)cc3)n2)on1 [Example 29, Ethyl 5-{2-[4-(difluoromethoxy)benzamido]-1-(4-methoxyphenyl)-1H-imidazol-4-yl}-1,2-oxazole-3-carboxylate]"
100 nM,9 nM,"CCOC(=O)c1cn(-c2ccc(OC)cc2)c(NC(=O)c2ccc(OC(F)F)cc2)n1 [Example 30, Ethyl 2-[4-(difluoromethoxy)benzamido]-1-(4-methoxyphenyl)-1H-imidazole-4-carboxylate]"
> 10000 nM,320 nM,"COc1ccc(-n2cc(C34CC5CC(CC(C5)C3)C4)nc2NC(=O)c2ccc(OC(F)F)cc2)cc1 [Example 31, N-[4-(Adamantan-1-yl)-1-(4-methoxyphenyl)-1H-imidazol-2-yl]-4-(difluoromethoxy)benzamide]"
110 nM,18 nM,"COc1ccc(-n2cc(C(C)(C)C)nc2NC(=O)c2ccc(OC(F)F)cc2)cc1 [Example 32, N-[4-Tert-butyl-1-(4-methoxyphenyl)-1H-imidazol-2-yl]-4-(difluoromethoxy)benzamide]"
940 nM,39 nM,"COc1cc(F)c(-n2cc(-c3ccccc3F)nc2NC(=O)c2ccc(OC(F)F)cc2)c(F)c1 [Example 33, N-[1-(2,6-Difluoro-4-methoxyphenyl)-4-(2-fluorophenyl)-1H-imidazol-2-yl]-4-(difluoromethoxy)benzamide]"
120 nM,16 nM,"COc1cc(F)c(-n2cc(-c3ccnc(Cl)c3)nc2NC(=O)c2ccc(OC(F)F)cc2)c(F)c1 [Example 34, N-[4-(2-Chloropyridin-4-yl)-1-(2,6-difluoro-4-methoxyphenyl)-1H-imidazol-2-yl]-4-(difluoromethoxy)benzamide]"
1400 nM,99 nM,"COc1cc(F)c(-n2cc(CC(C)C)nc2NC(=O)c2ccc(OC(F)F)cc2)c(F)c1 [Example 35, N-[1-(2,6-Difluoro-4-methoxyphenyl)-4-(2-methylpropyl)-1H-imidazol-2-yl]-4-(difluoromethoxy)benzamide]"
320 nM,31 nM,"COc1cc(F)c(-n2cc(-c3ccc(F)c(F)c3)nc2NC(=O)c2ccc(OC(F)F)cc2)c(F)c1 [Example 36, N-[1-(2,6-Difluoro-4-methoxyphenyl)-4-(3,4-difluorophenyl)-1H-imidazol-2-yl]-4-(difluoromethoxy)benzamide]"
800 nM,16 nM,"COc1cc(F)c(-n2cc(C3CC3)nc2NC(=O)c2ccc(OC(F)F)cc2)c(F)c1 [Example 37, N-[4-Cyclopropyl-1-(2,6-difluoro-4-methoxyphenyl)-1H-imidazol-2-yl]-4-(difluoromethoxy)benzamide]"
620 nM,15 nM,"CCOC(=O)c1cn(-c2c(F)cc(OC)cc2F)c(NC(=O)c2ccc(OC(F)F)cc2)n1 [Example 38, Ethyl 1-(2,6-difluoro-4-methoxyphenyl)-2-[4-(difluoromethoxy)benzamido]-1H-imidazole-4-carboxylate]"
1000 nM,21 nM,"CCc1cn(-c2c(F)cc(OC)cc2F)c(NC(=O)c2ccc(OC(F)F)cc2)n1 [Example 39, N-[1-(2,6-Difluoro-4-methoxyphenyl)-4-ehtyl-1H-imidazol-2-yl]-4-(difluoromethoxy)benzamide]"
1000 nM,11 nM,"COc1cc(F)c(-n2cc(-c3nccs3)nc2NC(=O)c2ccc(OC(F)F)cc2)c(F)c1 [Example 40, N-[1-(2,6-Difluoro-4-methoxyphenyl)-4-(1,3-thiazol-2-yl)-1H-imidazol-2-yl]-4-(difluoromethoxy)benzamide]"
230 nM,26 nM,"COc1cc(F)c(-n2cc(C3CCOCC3)nc2NC(=O)c2ccc(OC(F)F)cc2)c(F)c1 [Example 41, N-[1-(2,6-Difluoro-4-methoxyphenyl)-4-(oxan-4-yl)-1H-imdiazol-2-yl]-4-(difluoromethoxy)benzamide]"
57 nM,48 nM,"COc1ccc(-n2cc(C(F)(F)C(F)(F)F)nc2NC(=O)c2ccc(OC(F)F)cc2)cc1 [Example 42, 4-(Difluoromethoxy)-N-[1-(4-methoxyphenyl)-4-(1,1,2,2,2-pentafluoroethyl)-1H-imidazol-2-yl]benzamide]"
40 nM,10 nM,"COc1ccc(-n2cc(C(F)(F)F)nc2NC(=O)c2ccc(OC(F)F)cc2)cc1 [Example 43, 4-(Difluoromethoxy)-N-[1-(4-methoxyphenyl)-4-(trifluoromethyl)-1H-imidazol-2-yl]benzamide]"
370 nM,48 nM,"COc1cc(F)c(-n2cc(C(=O)NCc3cc[nH]n3)nc2NC(=O)c2ccc(OC(F)F)cc2)c(F)c1 [Example 44, 1-(2,6-Difluoro-4-methoxyphenyl)-2-[4-(difluoromethoxy)benzamido]-N-[(1H-pyrazol-3-yl)methyl]-1H-imidazole-4-carboxamide]"
710 nM,14 nM,"COc1ccc(-n2cc(C(=O)N3CCNCC3)nc2NC(=O)c2ccc(OC(F)F)cc2)cc1 [Example 45, 4-(Difluoromethoxy)-N-[1-(4-methoxyphenyl)-4-(piperazine-1-carbonyl)-1H-imidazol-2-yl]benzamide]"
210 nM,27 nM,"COc1ccc(-n2cc(C(=O)NCCCO)nc2NC(=O)c2ccc(OC(F)F)cc2)cc1 [Example 46, 2-[4-(Difluoromethoxy)benzamido]-N-(3-hydroxypropyl)-1-(4-methoxyphenyl)-1H-imidazole-4-carboxamide]"
110 nM,35 nM,"COc1cc(F)c(-n2cc(C(=O)NCc3cccnc3)nc2NC(=O)c2ccc(OC(F)F)cc2)c(F)c1 [Example 47, 1-(2,6-Difluoro-4-methoxyphenyl)-2-[4-(difluoromethoxy)benzamido]-N-[(pyridin-3-yl)methyl]-1H-imidazole-4-carboxamide]"
600 nM,110 nM,"COc1cc(F)c(-n2cc(C(=O)NCc3ccncc3)nc2NC(=O)c2ccc(OC(F)F)cc2)c(F)c1 [Example 48, 1-(2,6-Difluoro-4-methoxyphenyl)-2-[4-(difluoromethoxy)benzamido]-N-[(pyridin-4-yl)methyl]-1H-imidazole-4-carboxamide]"
750 nM,90 nM,"COc1cc(F)c(-n2cc(C(=O)NC3CCC(O)CC3)nc2NC(=O)c2ccc(OC(F)F)cc2)c(F)c1 (centres unmarked) [Example 49, 1-(2,6-Difluoro-4-methoxyphenyl)-2-[4-(difluoromethoxy)benzamido]-N-(4-hydroxycyclohexyl)-1H-imidazole-4-carboxamide]"
